In ChEMBL document CHEMBL2203140, “Syntheses and structure-activity relationship studies of N-substituted-β-D-glucosaminides as selective cytotoxic agents” (Bioorg Med Chem Lett, 2012):

Key:
Assay type in all cases: functional, cell-based
HCT-116 = experiment: Cytotoxicity against human HCT116 cells after 48 hrs by MTT assay; conditions: HCT-116, 48 h
A549 = experiment: Cytotoxicity against human A549 cells after 48 hrs by MTT assay; conditions: A549, 48 h
HeLa = experiment: Cytotoxicity against human HeLa cells after 48 hrs by MTT assay
HT-1080 = experiment: Cytotoxicity against human HT1080 cells after 48 hrs by MTT assay; conditions: HT-1080, 48 h
HepG2 = experiment: Cytotoxicity against human HepG2 cells after 48 hrs by MTT assay; conditions: HepG2, 48 h
MCF7 = experiment: Cytotoxicity against human MCF7 cells after 48 hrs by MTT assay; conditions: MCF7, 48 h

Structure (SMILES) | IC50 (HCT-116) | IC50 (A549) | IC50 (HeLa) | IC50 (HT-1080) | IC50 (HepG2) | IC50 (MCF7)
Cc1ccc(/C=C/C(=O)N[C@H]2[C@H](O[C@H]3CC[C@@]4(C)C(=CC[C@H]5[C@@H]6C[C@@H]7O[C@]8(CC[C@@H](C)CO8)[C@@H](C)[C@@H]7[C@@]6(C)CC[C@@H]54)C3)O[C@H](CO)[C@@H](O)[C@@H]2O)cc1 | 40.4 µM | 41.6 µM | 6.5 µM | 23.5 µM | 35.5 µM | 5.3 µM
COc1ccc(/C=N/NC(=S)N[C@H]2[C@H](O[C@H]3CC[C@@]4(C)C(=CC[C@H]5[C@@H]6C[C@@H]7O[C@]8(CC[C@@H](C)CO8)[C@@H](C)[C@@H]7[C@@]6(C)CC[C@@H]54)C3)O[C@H](CO)[C@@H](O)[C@@H]2O)cc1 | 38.2 µM | 37.3 µM | 34.8 µM | > 50 µM | 28.2 µM | > 50 µM
C[C@@H]1CC[C@@]2(OC1)O[C@H]1C[C@H]3[C@@H]4CC=C5C[C@@H](O[C@@H]6O[C@H](CO)[C@@H](O)[C@H](O)[C@H]6NC(=O)NC6CC6)CC[C@]5(C)[C@H]4CC[C@]3(C)[C@H]1[C@@H]2C | > 50 µM | > 50 µM | 43.5 µM | > 50 µM | > 50 µM | > 50 µM
COc1ccc(/C=C/C(=O)N[C@H]2[C@H](O[C@H]3CC[C@@]4(C)C(=CC[C@H]5[C@@H]6C[C@@H]7O[C@]8(CC[C@@H](C)CO8)[C@@H](C)[C@@H]7[C@@]6(C)CC[C@@H]54)C3)O[C@H](CO)[C@@H](O)[C@@H]2O)c(OC)c1 | 42.9 µM | 27.1 µM | 22.3 µM | 5.8 µM | 41.3 µM | 26.7 µM
COc1ccc(OC)c(/C=C/C(=O)N[C@H]2[C@H](O[C@H]3CC[C@@]4(C)C(=CC[C@H]5[C@@H]6C[C@@H]7O[C@]8(CC[C@@H](C)CO8)[C@@H](C)[C@@H]7[C@@]6(C)CC[C@@H]54)C3)O[C@H](CO)[C@@H](O)[C@@H]2O)c1 | 35.6 µM | 47.8 µM | 32.2 µM | > 50 µM | 31.7 µM | > 50 µM
C[C@@H]1CC[C@@]2(OC1)O[C@H]1C[C@H]3[C@@H]4CC=C5C[C@@H](O[C@@H]6O[C@H](CO)[C@@H](O)[C@H](O)[C@H]6NC(=S)N/N=C/c6ccccc6)CC[C@]5(C)[C@H]4CC[C@]3(C)[C@H]1[C@@H]2C | 40 µM | 49.7 µM | 36.2 µM | > 50 µM | 29.5 µM | 48.2 µM
COc1ccc(/C=C/C(=O)N[C@H]2[C@H](O[C@H]3CC[C@@]4(C)C(=CC[C@H]5[C@@H]6C[C@@H]7O[C@]8(CC[C@@H](C)CO8)[C@@H](C)[C@@H]7[C@@]6(C)CC[C@@H]54)C3)O[C@H](CO)[C@@H](O)[C@@H]2O)cc1 | 29.5 µM | 24.4 µM | 6.1 µM | 3.5 µM | 30.7 µM | 0.5 µM
COc1ccccc1/C=C/C(=O)N[C@H]1[C@H](O[C@H]2CC[C@@]3(C)C(=CC[C@H]4[C@@H]5C[C@@H]6O[C@]7(CC[C@@H](C)CO7)[C@@H](C)[C@@H]6[C@@]5(C)CC[C@@H]43)C2)O[C@H](CO)[C@@H](O)[C@@H]1O | 38.9 µM | 23.1 µM | 27.5 µM | 4.3 µM | 29.5 µM | 23.1 µM
C[C@@H]1CC[C@@]2(OC1)O[C@H]1C[C@H]3[C@@H]4CC=C5C[C@@H](O[C@@H]6O[C@H](CO)[C@@H](O)[C@H](O)[C@H]6NC(=O)NC(C)(C)C)CC[C@]5(C)[C@H]4CC[C@]3(C)[C@H]1[C@@H]2C | > 50 µM | > 50 µM | 27.6 µM | 42.3 µM | > 50 µM | 26.8 µM
C[C@@H]1CC[C@@]2(OC1)O[C@H]1C[C@H]3[C@@H]4CC=C5C[C@@H](O[C@@H]6O[C@H](CO)[C@@H](O)[C@H](O)[C@H]6NC(=S)N/N=C/c6cc(C(F)(F)F)cc(C(F)(F)F)c6)CC[C@]5(C)[C@H]4CC[C@]3(C)[C@H]1[C@@H]2C | > 50 µM | > 50 µM | > 50 µM | > 50 µM | > 50 µM | > 50 µM
COc1ccc(/C=C/C(=O)N[C@H]2[C@H](O[C@H]3CC[C@@]4(C)C(=CC[C@H]5[C@@H]6C[C@@H]7O[C@]8(CC[C@@H](C)CO8)[C@@H](C)[C@@H]7[C@@]6(C)CC[C@@H]54)C3)O[C@H](CO)[C@@H](O)[C@@H]2O)cc1OC | 29 µM | 30.3 µM | 26.1 µM | > 50 µM | 25.9 µM | 31.3 µM
COc1cccc(/C=C/C(=O)N[C@H]2[C@H](O[C@H]3CC[C@@]4(C)C(=CC[C@H]5[C@@H]6C[C@@H]7O[C@]8(CC[C@@H](C)CO8)[C@@H](C)[C@@H]7[C@@]6(C)CC[C@@H]54)C3)O[C@H](CO)[C@@H](O)[C@@H]2O)c1OC | 47.4 µM | 43.4 µM | 36.2 µM | 21.2 µM | 45.6 µM | 44.4 µM
COc1cc(/C=C/C(=O)N[C@H]2[C@H](O[C@H]3CC[C@@]4(C)C(=CC[C@H]5[C@@H]6C[C@@H]7O[C@]8(CC[C@@H](C)CO8)[C@@H](C)[C@@H]7[C@@]6(C)CC[C@@H]54)C3)O[C@H](CO)[C@@H](O)[C@@H]2O)cc(OC)c1OC | > 50 µM | > 50 µM | > 50 µM | > 50 µM | > 50 µM | > 50 µM
C[C@@H]1CC[C@@]2(OC1)O[C@H]1C[C@H]3[C@@H]4CC=C5C[C@@H](O[C@@H]6O[C@H](CO)[C@@H](O)[C@H](O)[C@H]6NC(=O)NCc6ccc(F)cc6)CC[C@]5(C)[C@H]4CC[C@]3(C)[C@H]1[C@@H]2C | > 50 µM | > 50 µM | > 50 µM | 42 µM | > 50 µM | > 50 µM
COc1ccc(CNC(=O)N[C@H]2[C@H](O[C@H]3CC[C@@]4(C)C(=CC[C@H]5[C@@H]6C[C@@H]7O[C@]8(CC[C@@H](C)CO8)[C@@H](C)[C@@H]7[C@@]6(C)CC[C@@H]54)C3)O[C@H](CO)[C@@H](O)[C@@H]2O)cc1 | > 50 µM | > 50 µM | > 50 µM | > 50 µM | > 50 µM | > 50 µM
C[C@@H]1CC[C@@]2(OC1)O[C@H]1C[C@H]3[C@@H]4CC=C5C[C@@H](O[C@@H]6O[C@H](CO)[C@@H](O)[C@H](O)[C@H]6NC(=O)/C=C/c6cccc(Br)c6)CC[C@]5(C)[C@H]4CC[C@]3(C)[C@H]1[C@@H]2C | > 50 µM | > 50 µM | > 50 µM | > 50 µM | > 50 µM | > 50 µM
O=c1[nH]cc(F)c(=O)[nH]1 [FLUOROURACIL] | 36.4 µM | – | 63.4 µM | 15.2 µM | 51.5 µM | 78.6 µM
CC(=O)N[C@H]1[C@H](O[C@H]2CC[C@@]3(C)C(=CC[C@H]4[C@@H]5C[C@@H]6O[C@]7(CC[C@@H](C)CO7)[C@@H](C)[C@@H]6[C@@]5(C)CC[C@@H]43)C2)O[C@H](CO)[C@@H](O)[C@@H]1O | > 50 µM | > 50 µM | – | > 50 µM | > 50 µM | –
